Assay results reported in patent US20240327429A1, “[1,3]Thiazolo[4,5-d]-pyrimidon-7-ones as inhibitors of NOX4” (Boehringer Ingelheim International GmbH, priority 2023, published 2024).
Values joined by “and” are separate entries in the source; they are usually repeats but may differ in a detail not shown here. Identical values can stand only once.

Key:
human NOX1 (hNOX1) = molecular target: T1, human NOX1 (hNOX1) (Homo sapiens, UniProt Q9Y5S8); experiment: NOX1 inhibition assay (L-012), HEK293 cells stably overexpressing human NOX1; format: cell-based; settings: HEK293-hNOX1, PMA stimulated
T1 construct: pLV-CMV-hNOX1-puro (NM_007052.5); host or cells: HEK293 (CLS GmbH), lentiviral transduction
T1 sequence (Q9Y5S8 1-564): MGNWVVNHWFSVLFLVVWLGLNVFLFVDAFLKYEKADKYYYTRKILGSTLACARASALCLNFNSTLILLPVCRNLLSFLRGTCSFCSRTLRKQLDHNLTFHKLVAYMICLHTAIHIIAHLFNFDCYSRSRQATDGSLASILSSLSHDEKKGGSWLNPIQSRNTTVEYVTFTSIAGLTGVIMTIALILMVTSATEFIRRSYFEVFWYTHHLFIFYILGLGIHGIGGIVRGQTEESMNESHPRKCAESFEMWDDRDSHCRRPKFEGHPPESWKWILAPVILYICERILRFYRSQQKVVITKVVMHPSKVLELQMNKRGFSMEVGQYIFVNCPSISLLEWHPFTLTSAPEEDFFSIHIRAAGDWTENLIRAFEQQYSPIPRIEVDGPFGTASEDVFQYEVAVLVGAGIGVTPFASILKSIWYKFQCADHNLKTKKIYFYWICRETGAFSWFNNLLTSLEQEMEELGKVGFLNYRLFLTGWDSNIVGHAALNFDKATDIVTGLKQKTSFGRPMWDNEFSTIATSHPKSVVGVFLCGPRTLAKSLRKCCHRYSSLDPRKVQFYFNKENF
T1 sequence (P13498 2-195 partner limits assumed): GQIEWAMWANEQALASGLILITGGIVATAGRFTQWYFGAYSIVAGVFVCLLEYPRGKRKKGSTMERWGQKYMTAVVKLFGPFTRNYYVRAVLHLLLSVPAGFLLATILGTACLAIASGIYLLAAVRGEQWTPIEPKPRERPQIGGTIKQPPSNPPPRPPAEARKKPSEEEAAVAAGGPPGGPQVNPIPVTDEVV
From the text: Plasmids are Purchased from Vectorbuilder. • for HEK-hNOX1 all necessary subunits are cloned accordingly: • pLV-CMV-hNOX1-puro (NM_007052.5) • pLV-CMV-hNOXO1-blas (NM_172168.3) • pLV-CMV-hp22phox-hygro (NM_000101.4) • pLV-CMV-hNOXA1-neo (NM_006647.2) • for HEK-hNOX3 • pLV-CMV-hNOX3-puro (NM_015718.3)
3rd generation lentiviral particles are produced in HEK293 suspension cells by transient transfection of three helper and expression plasmids. Crucial lentivirus supernatants are harvested, clarified by filtration and concentrated by precipitation. Lentivirus titers are determined in transducing units in (TU/mL) by transduction of HT1080 cells and colony forming assay. Parental HEK293 cells, purchased from CLS GmbH, are transduced with replication-incompetent 3rd generation lentiviral particles (MOI 2) and expanded for at least 2 weeks before cryopreservation of tested lots. During cultivation, medium is changed three times per week and cells are sub-cultured at least once per week. Selection antibiotics are added according to the plasmids (1 μg/ml puromycin, 1.5 μg/ml blasticidin, 200 μg/ml G418 and 100 μg/ml hygromycin).
Evaluation of the NOX4 inhibitors on NOX1 activity is assessed in HEK293 cells stably overexpressing human NOX1 (hNOX1).
Lastly, 8-amino-5-chloro-2,3-dihydro-7-phenyl-pyrido[3,4-d]pyridazine-1,4-dione sodium salt (L-012, CAS 143556-24-5) is added at 400 μM to all wells, and cells are incubated in an incubator for an additional 3 h. Afterwards luminescence is measured with a SpectraMax Paradigm Microplate Reader.

human hepatocytes = experiment: Evaluation of hepatocyte clearance (metabolic stability); format: in vitro ADME; settings: % of hepatic blood flow
Experimental: The metabolic degradation of the test compound is assayed in a hepatocyte suspension. Hepatocytes (cryopreserved) are incubated in Dulbecco's modified eagle medium (supplemented with […] glucagon/500 mL, 2.5 mg insulin/500 mL and 3.75 mg/500 mL hydrocortisone) containing 5% human serum.
Following a 30 min preincubation in an incubator (37° C., 10% CO2) 5 μl of test compound solution (80 μM; from 2 mM in DMSO stock solution diluted 1:25 with medium) are added into 395 μl hepatocyte suspension (cell density in the range 0.25-5 Mio cells/mL, typically 1 Mio cells/mL; final concentration of test compound 1 μM, final DMSO concentration 0.05%).
The cells are incubated for six hours (incubator, orbital shaker) and samples (25 μl) are taken at 0, 0.5, 1, 2, 4 and 6 hours. Samples are transferred into acetonitrile and pelleted by centrifugation (5 min). The supernatant is transferred to a new 96-deepwell plate, evaporated under nitrogen and resuspended.
Decline of Parent Compound is Analyzed by HPLC-MS/MS.
CLint is Calculated as Follows:
CL_[…]=Dose/AUC=(C0/CD)/(AUD+clast/k)×1000/60. • C0: initial concentration in the incubation [μM], CD: cell density of vital cells [10^6 cells/mL], AUD: area under the data [μM×h], clast: concentration of last data point [μM], • k: slope of the regression line for parent decline [h-1].
The calculated in vitro hepatic intrinsic clearance can be scaled up to the intrinsic in vivo hepatic clearance and used to predict hepatic in vivo blood clearance (CL) by the use of a liver model (well stirred model).
CL_[…]_INVIVO[ml/min/kg]=(CL_[…][μL/min/10^6 cells]×hepatocellularity[10^6 cells/g liver]×liver factor[g/kg bodyweight])/1000
CL[ml/min/kg]=CL_[…]_INVIVO[ml/min/kg]×hepatic blood flow[ml/min/kg]/(CL_[…]_INVIVO[ml/min/kg]+hepatic blood flow[ml/min/kg])

NOX4 = molecular target: T2, NOX4 (Homo sapiens, UniProt Q9NPH5); settings: modified HEK cells, Amplex Red; read-out: NOX4 IC50 [μM] as disclosed in WO2016207785; cited from earlier work
T2 construct: host or cells: modified HEK cells
T2 sequence (Q9NPH5 1-578): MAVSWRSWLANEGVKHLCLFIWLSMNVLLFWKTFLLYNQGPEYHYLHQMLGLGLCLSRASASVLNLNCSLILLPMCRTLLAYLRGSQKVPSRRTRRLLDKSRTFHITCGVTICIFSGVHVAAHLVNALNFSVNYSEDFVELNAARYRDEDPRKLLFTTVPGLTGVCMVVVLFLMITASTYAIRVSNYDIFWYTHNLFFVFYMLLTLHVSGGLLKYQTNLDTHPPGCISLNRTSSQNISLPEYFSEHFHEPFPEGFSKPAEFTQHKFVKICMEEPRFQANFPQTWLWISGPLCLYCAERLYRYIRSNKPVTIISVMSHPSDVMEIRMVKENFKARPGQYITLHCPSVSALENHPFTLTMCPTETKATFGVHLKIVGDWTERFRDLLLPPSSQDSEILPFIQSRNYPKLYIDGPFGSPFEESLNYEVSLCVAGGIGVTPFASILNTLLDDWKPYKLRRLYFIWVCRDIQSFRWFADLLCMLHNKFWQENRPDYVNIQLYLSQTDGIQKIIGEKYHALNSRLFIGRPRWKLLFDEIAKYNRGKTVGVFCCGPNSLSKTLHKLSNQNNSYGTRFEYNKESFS
T2 sequence (P13498 2-195 partner limits assumed): T1 sequence (P13498 2-195 partner limits assumed)

human NOX4 (hNOX4) = molecular target: T3, human NOX4 (hNOX4) (Homo sapiens, UniProt Q9NPH5); experiment: cell-based
T3 sequence (Q9NPH5 1-578): T2 sequence (Q9NPH5 1-578)
T3 sequence (P13498 2-195 partner limits assumed): T1 sequence (P13498 2-195 partner limits assumed)
Experimental: The synthetic gene phNOX4_DNA3_1_Zeo (Accession: AAF68973) is assembled from synthetic oligonucleotides and/or PCR products. The fragment is cloned into pcDNA3.1_Zeo_A011 using NheI and XhoI cloning sites. The plasmid DNA is purified from transformed bacteria and its concentration is determined by UV spectroscopy. The final construct is verified by sequencing. The plasmid is transfected via electroporation (Amaxa electroporation device) in combination with Nucleofector Kit V. Selection of NOX4 overexpressing genes is achieved using selection antibiotic Zeocin.
The inhibitory activity of the example compounds of the invention is determined using the following procedure:
Cells are cultured in the Dulbecco's Modified Eagle Medium (DMEM) media containing 4.5 g/L glucose supplemented with 10% fetal calf serum and 250 μg/ml Zeocin in an incubator at 37° C. with 5% CO2. For the assay, cells are seeded in 384 well plates.
After incubation Lumigen HyPerBlu™ is added and cells are incubated for additional 30 min at 24° C. in a humidified incubator. Next, luminescence is measured using an Envision Multimode Plate reader to determine levels of produced H2O2 in the wells.

SMILES	IC50 (human NOX1 (hNOX1)) [µM]	clearance in human hepatocytes (human hepatocytes) [% QH]	IC50 (NOX4) [µM]	IC50 (human NOX4 (hNOX4))
O=c1c2scnc2nc(SCc2cccc(F)c2)n1-c1ccc(O)cc1 [Example 1, 5-((3-Fluorobenzyl)thio)-6-(4-hydroxyphenyl)thiazolo[4,5-d]pyrimidin-7(6H)-one]	> 100	52	0.34	0.56 µM and 0.555 µM
O=C(Nc1ccc2oc(N3CCC34COC4)nc2c1)c1ccc2c(c1)CCO2 [Example 15 of WO2016207785]	–	29	–	–
O=C(Nc1ccc2c(c1)CCO2)c1ccc2oc(N3CCC34COC4)nc2c1 [Example 80]	–	46	–	–
O=c1c2scnc2nc(SCc2ccc(Cl)cc2)n1-c1cccnc1 [reference compound]	–	–	–	5.45 µM
Cc1cc(F)ccc1CSc1nc2ncsc2c(=O)n1-c1cccnc1 [reference compound]	–	–	–	8.12 µM
O=c1c2scnc2nc(SCc2c(F)cc(F)cc2F)n1-c1cncc(F)c1 [reference compound]	–	–	–	1.65 µM
